{
  "source": "ChEMBL document CHEMBL1201862",
  "about": "“PubChem BioAssay data set” (2004)",
  "key": {"[1]": {"target": "Troponin, cardiac muscle (Homo sapiens, UniProt P19429+P45379+P63316)", "assay": "Fluorescence-based biochemical high throughput dose response assay for activators of the calcium sensitivity of cardiac Regulated Thin Filaments (RTF). [Related pubchem assays (depositor defined):AID493008, AID493018, AID504382, AID504383]", "type": "protein-complex assay"}, "[2]": {"target": "Eukaryotic translation initiation factor 4E (Mus musculus, UniProt P63073)", "sequence (P63073 whole entry)": "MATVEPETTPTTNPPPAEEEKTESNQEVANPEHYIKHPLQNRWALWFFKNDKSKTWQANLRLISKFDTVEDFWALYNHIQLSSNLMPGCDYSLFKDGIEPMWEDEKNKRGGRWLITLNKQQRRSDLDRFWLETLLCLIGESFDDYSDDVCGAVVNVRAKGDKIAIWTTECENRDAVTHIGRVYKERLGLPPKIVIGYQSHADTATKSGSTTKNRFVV", "assay": "eIF4E–eIF4G protein interaction inhibitors, dose response, biochemical, TR-FRET (AID 855);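 further: potency for disrupting eIF4E binding to eIF4GI seen as loss of FRET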", "type": "functional"}, "[3]": {"test_system": "Escherichia coli", "assay": "microbe, parasite or virus in culture"}, "[4]": {"assay": "cells", "type": "functional"}, "[5]": {"test_system": "Vero", "assay": "cells", "type": "functional", "details": "Chlorocebus sabaeus"}, "[6]": {"assay": "HEp-2 cell cytotoxicity, dose response, cytotoxicity control for RSV inhibitor project, HTS (AID 2410)", "type": "functional", "details": "human respiratory syncytial virus"}, "[7]": {"target": "T1, SUMO-activating enzyme (Homo sapiens, UniProt Q9UBT2)", "T1 sequence (Q9UBE0 whole entry)": "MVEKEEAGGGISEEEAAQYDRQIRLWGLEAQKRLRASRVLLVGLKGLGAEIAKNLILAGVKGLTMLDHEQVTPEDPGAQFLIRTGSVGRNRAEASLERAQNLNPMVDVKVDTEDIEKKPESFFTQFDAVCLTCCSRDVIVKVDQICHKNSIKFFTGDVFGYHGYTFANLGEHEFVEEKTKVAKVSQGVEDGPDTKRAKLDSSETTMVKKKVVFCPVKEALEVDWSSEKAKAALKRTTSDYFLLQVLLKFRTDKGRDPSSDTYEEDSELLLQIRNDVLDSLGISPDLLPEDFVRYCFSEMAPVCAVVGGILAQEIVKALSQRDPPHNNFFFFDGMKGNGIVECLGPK", "T1 sequence (Q9UBT2 whole entry)": "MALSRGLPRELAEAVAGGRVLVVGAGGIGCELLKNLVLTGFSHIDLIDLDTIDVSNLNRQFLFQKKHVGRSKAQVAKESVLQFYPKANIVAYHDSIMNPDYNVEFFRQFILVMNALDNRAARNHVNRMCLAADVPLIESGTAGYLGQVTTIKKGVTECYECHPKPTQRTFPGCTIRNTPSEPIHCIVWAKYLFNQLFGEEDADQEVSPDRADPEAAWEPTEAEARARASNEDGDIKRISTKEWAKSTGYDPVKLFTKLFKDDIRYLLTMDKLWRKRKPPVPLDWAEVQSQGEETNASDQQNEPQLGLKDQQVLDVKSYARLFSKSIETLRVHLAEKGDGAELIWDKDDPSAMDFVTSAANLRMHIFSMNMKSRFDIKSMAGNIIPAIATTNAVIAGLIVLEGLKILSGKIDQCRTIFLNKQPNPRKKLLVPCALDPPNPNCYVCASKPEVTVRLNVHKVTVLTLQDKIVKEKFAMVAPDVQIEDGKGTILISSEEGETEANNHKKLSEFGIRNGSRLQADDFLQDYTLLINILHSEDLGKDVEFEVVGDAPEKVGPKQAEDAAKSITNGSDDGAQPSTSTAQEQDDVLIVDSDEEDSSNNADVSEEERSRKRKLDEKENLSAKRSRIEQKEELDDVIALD", "assay": "SUMOylation inhibitor hit validation, confirmation, SUMOylation inhibitor project, biochemical, AlphaScreen (AID 2018)", "type": "functional"}, "[8]": {"target": "T1, SUMO-activating enzyme", "assay": "inhibitors of in vitro SUMOylation cascade, primary screen, biochemical, HTRF, uHTS (AID 2006)", "type": "protein-complex assay"}},
  "note": "Active and inactive are the calls of the source.",
  "data": [
    {"smiles": "O=C(Nc1ccccc1)NC1CS(=O)(=O)CC1O", "note": "(stereo not given)", "values": [
      {"measurement": "EC50", "setting": "[1]", "value": "> 71.5 µM (inactive)"}
    ]},
    {"smiles": "NC(=O)NC(=O)COC(=O)c1cccc(NS(=O)(=O)/C=C/c2ccccc2)c1", "values": [
      {"measurement": "IC50", "setting": "[2]", "value": "50 µM (inactive)"},
      {"measurement": "EC50", "setting": "[1]", "value": "> 71.5 µM (inactive)"}
    ]},
    {"smiles": "N#Cc1ccc(S(=O)(=O)NC2CCCCNC2=O)cc1", "note": "(stereo not given)", "values": [
      {"measurement": "EC50", "setting": "[1]", "value": "> 71.4 µM (inactive)"}
    ]},
    {"smiles": "O=C(NC1CC1)c1ccc(N2CCCCC2)c([N+](=O)[O-])c1", "values": [
      {"measurement": "AC50", "setting": "[3]", "value": "73.1 µM (active)"}
    ]},
    {"smiles": "Cc1cs/c(=N\\c2cccnc2)n1CC1CCCCC1", "values": [
      {"measurement": "IC50", "setting": "[4]", "value": "> 50 µM (active)"}
    ]},
    {"smiles": "CC(=O)c1c(C)[nH]c(C(=O)CSc2nnc3ccccn23)c1C", "values": [
      {"measurement": "AC50", "setting": "[3]", "value": "27 µM (active)"}
    ]},
    {"smiles": "COc1ccc(-c2[nH]ncc2CNC(C)c2ccccc2Cl)cc1F", "note": "(stereo not given)", "values": [
      {"measurement": "CC50", "setting": "[5]", "value": "> 25 µM (active)"}
    ]},
    {"smiles": "Cc1nc([N+](=O)[O-])c(Sc2nc3ccccc3n2C)n1Cc1ccccc1", "values": [
      {"measurement": "CC50", "setting": "[6]", "value": "13.5 µM (active)"},
      {"measurement": "CC50", "setting": "[5]", "value": "20.8 µM (active)"}
    ]},
    {"smiles": "O=C(Nc1ccc2c(c1)OCCO2)C1CCCN(S(=O)(=O)c2cccnc2)C1", "note": "(stereo not given)", "values": [
      {"measurement": "AC50", "setting": "[3]", "value": "52.7 µM (active)"}
    ]},
    {"smiles": "O=C(COC(=O)c1ccc(O)cc1O)c1ccc2c(c1)OCO2", "values": [
      {"measurement": "IC50", "setting": "[4]", "value": "18.2 µM (active)"}
    ]},
    {"smiles": "NC(=O)CC(NC(=O)Cc1ccc(Br)cc1)c1ccc(N2CCC(Br)CC2)c([N+](=O)[O-])c1", "note": "(stereo not given)", "values": [
      {"measurement": "IC50", "setting": "[7]", "value": "28.3 µM (active)"},
      {"measurement": "IC50", "setting": "[8]", "value": "34.5 µM (active)"}
    ]},
    {"smiles": "O=C(CSC1=NS(=O)(=O)c2ccccc2N1)N1CCCCC1", "values": [
      {"measurement": "EC50", "setting": "[1]", "value": "> 71.5 µM (inactive)"}
    ]}
  ]
}
